Values quoted from earlier work in paper PMC2929769 (Toxicon : official journal of the International Society on …, 2010).

Tested on: RTA
Settings: read-out: RTA IC50

Question: Which IC50 does the source give for `Nc1nc(=O)c(CCCc2ccc(C(=O)O)cc2)c(O)[nH]1` [PBA, 4-[3-(2-amino-1,4-dihydro-6-hydroxy-4-oxo-5-pyrimidinyl)propyl]-benzoic acid] here?
Answer: The IC50 was 270 µM.
